Source: patent publication US20110178053A1, “AZACARBOLINE DERIVATIVES, PREPARATION METHOD THEREOF AND THERAPEUTIC USE OF SAME” (SANOFI-AVENTIS, priority 2008, published 2011)
Read-outs that look alike come from different tables or passages of the source.

Key:
Format in all cases: biochemical
Pim-2 = target: T1, Pim-2 (Homo sapiens, UniProt Q9P1W9); assay: TR-FRET assay, Pim-2 kinase (phosphorylation of Bad Ser112); conditions: read-out: IC50 Pim2
T1 construct: His6-labelled recombinant full-length human Pim-1, Pim-2 or Pim-3 protein; His6; made in house
T1 sequence (Q9P1W9 whole entry): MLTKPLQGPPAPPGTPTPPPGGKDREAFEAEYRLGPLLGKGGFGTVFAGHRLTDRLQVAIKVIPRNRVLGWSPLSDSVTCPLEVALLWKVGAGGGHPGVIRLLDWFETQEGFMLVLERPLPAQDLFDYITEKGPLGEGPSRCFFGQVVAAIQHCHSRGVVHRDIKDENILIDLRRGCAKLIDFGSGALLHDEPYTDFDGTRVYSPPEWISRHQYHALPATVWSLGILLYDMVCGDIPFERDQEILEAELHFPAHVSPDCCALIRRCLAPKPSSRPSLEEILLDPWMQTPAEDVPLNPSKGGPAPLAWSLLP
Description: (§1) In order to determine the inhibition of activation of Pim kinases, the compounds of the invention are tested in accordance with a routinely used in vitro TR-FRET assay (Time-Resolved Fluorescence Resonance Energy Transfer). […] For the assay, the following reagents are used:
(§2) Pim kinase—His6-labelled recombinant full-length human Pim-1, Pim-2 or Pim-3 protein (prepared according to J. Mol. Biol. (2005) 348, 183-193); Bad—His6-labelled recombinant full-length human Bad protein (prepared according to J. Mol. Biol. (2005) 348, 183-193); α-His6-APC—murine monoclonal antibody conjugated to allophycocyanin SureLight™ directed against the His6 label (Perkin-Elmer, No. AD0059H, Waltham, Mass., United States); • β-P˜Bad-Eu—murine monoclonal antibody (Cell Signaling Technology #9296B, Danvers, Mass., United States) directed against phosphoBad (Ser112) (7E11) custom-labelled by Perkin-Elmer with the reagent LANCE™ Eu-W1024.
(§3) The assay is based on Perkin-Elmer's LANCE™ technology: the Eu-labelled antibody binds to phospho-Ser112 and generates a TR-FRET signal by interaction with the APC-labelled antibody directed against His6, bound to the His6 label of Bad. The TR-FRET signal is detected using a SpectraMax M5 plate reader (Molecular Devices) with the following settings: λex=340 nm, λem1=615 nm, λem2=665 nm. The ratio of the fluorescence signal at 665 nm to the fluorescence signal at 615 nm is used as the signal reading for the IC50 (calculation is based on the 4-parameter logistic model). The assay is performed in a 384-well format; the liquid manipulations are performed using a Beckman 3000 liquid manipulations station. The test compounds are tested at 10 concentration points in duplicate; the highest compound concentration is typically equal to 30 μM. The ATP concentration is equal to 40 μM, which is equivalent to the apparent KM value.

Pim-3 = target: T2, Pim-3 (Homo sapiens, UniProt Q86V86); assay: TR-FRET assay, Pim-3 kinase (phosphorylation of Bad Ser112); conditions: read-out: IC50 Pim3
T2 construct: His6-labelled recombinant full-length human Pim-1, Pim-2 or Pim-3 protein; His6; made in house
Description: as §1, §2, §3

Pim-1 = target: T3, Pim-1 (Homo sapiens, UniProt P11309); assay: TR-FRET assay, Pim-1 kinase (phosphorylation of Bad Ser112); conditions: read-out: IC50 Pim1
T3 construct: His6-labelled recombinant full-length human Pim-1, Pim-2 or Pim-3 protein; His6; made in house
T3 sequence (P11309 whole entry): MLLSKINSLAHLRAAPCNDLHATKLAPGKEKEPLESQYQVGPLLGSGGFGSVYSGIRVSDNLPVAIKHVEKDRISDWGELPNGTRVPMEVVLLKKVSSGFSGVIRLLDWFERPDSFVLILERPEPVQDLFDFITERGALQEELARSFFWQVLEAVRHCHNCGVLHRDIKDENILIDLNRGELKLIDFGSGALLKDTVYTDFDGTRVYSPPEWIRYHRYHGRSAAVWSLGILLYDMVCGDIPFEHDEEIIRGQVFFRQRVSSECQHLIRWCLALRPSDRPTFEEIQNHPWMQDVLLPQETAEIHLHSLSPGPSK
Description: as §1, §2, §3

[1] = comparative compounds (Compound No., not claimed)

SMILES | IC50 (Pim-2; TR-FRET, ATP 40 μM) [µM] | IC50 (Pim-3; TR-FRET, ATP 40 μM) [nM] | IC50 (Pim-1; TR-FRET, ATP 40 μM) [nM] | IC50 (Pim-2; [1]) [µM] | IC50 (Pim-3; [1]) [nM] | IC50 (Pim-1; [1]) [nM]
OCC(O)CCc1c(F)cnc2[nH]c3cnc(-c4cccnc4)cc3c12 (stereo not drawn) [Example 30, 4-(3-fluoro-6-(pyrid-3-yl)-9H-pyrrolo[2,3-b:5,4-c′]dipyrid-4-yl]butane-1,2-diol] | 1 to 5 | 100 to 1000 | 1 to 100 |  |  | 
CN(C)CC(=O)N1CCN(c2ccc(-c3cnc4[nH]c5cnc(-c6cccnc6)cc5c4c3)cc2)CC1 [Example 135, 2-(dimethylamino)-1-(4-{4-[6-(pyrid-3-yl)-9H-pyrrolo[2,3-b:5,4-c′]dipyrid-3-yl]-phenyl}piperazin-1-yl)ethanone] | 0.1 to 1 | 1 to 100 | 1 to 100 |  |  | 
OCc1cnc2[nH]c3cnc(-c4cccnc4)cc3c2c1 [Example 17, [6-(pyrid-3-yl)-9H-pyrrolo[2,3-b:5,4-c′]dipyrid-3-yl]methanol] | > 5 | 100 to 1000 | 100 to 1000 |  |  | 
CN1CCN(c2cnc3[nH]c4cnc(-c5cccnc5)cc4c3c2)CC1 [Example 106, 3-(4-methylpiperazin-1-yl)-6-(pyrid-3-yl)-9H-pyrrolo[2,3-b:5,4-c′]dipyridine] | > 5 | 1 to 100 | 1 to 100 |  |  | 
CN1CCN(c2ccc(-c3cnc4[nH]c5cnc(-c6cccnc6)cc5c4c3)cc2)CC1 [Example 138, 3-[4-(4-methylpiperazin-1-yl)phenyl]-6-(pyrid-3-yl)-9H-pyrrolo[2,3-b:5,4-c′]dipyridine] | 0.1 to 1 | 1 to 100 | 1 to 100 |  |  | 
c1cncc(-c2cnc3[nH]c4ncccc4c3c2)c1 [Compound 56] |  |  |  | > 5 | > 5000 | > 5000
CS(=O)(=O)Nc1cccc(-c2c(F)cnc3[nH]c4cnc(-c5cccnc5)cc4c23)c1 [Example 53, N-{3-[3-fluoro-6-(pyrid-3-yl)-9H-pyrrolo[2,3-b:5,4-c′]-dipyrid-4-yl]phenyl}-methanesulfonamide] | 1 to 5 | 100 to 1000 | 1 to 100 |  |  | 
OCCN1CCN(c2c(F)cnc3[nH]c4cnc(-c5cccnc5)cc4c23)CC1 [Example 81, 2-{4-[3-fluoro-6-(pyrid-3-yl)-9H-pyrrolo[2,3-b:5,4-c′]dipyrid-4-yl]piperazin-1-yl}ethanol] | 1 to 5 | 100 to 1000 | 1 to 100 |  |  | 
CC(=O)N1CCN(c2ccc(-c3cnc4[nH]c5cnc(-c6cccnc6)cc5c4c3)cc2)CC1 [Example 137, 1-(4-{4-[6-(pyrid-3-yl)-9H-pyrrolo[2,3-b:5,4-c′]dipyrid-3-yl]phenyl}piperazin-1-yl)-ethanone] | 0.1 to 1 | 1 to 100 | 1 to 100 |  |  | 
CN1CCN(c2cccc(-c3cnc4[nH]c5cnc(-c6cccnc6)cc5c4c3)c2)CC1 [Example 139, 3-[3-(4-methylpiperazin-1-yl)phenyl]-6-(pyrid-3-yl)-9H-pyrrolo[2,3-b:5,4-c′]dipyridine] | 1 to 5 | 1 to 100 | 1 to 100 |  |  | 
COc1cc2c(cn1)[nH]c1cnc(-c3cccnc3)cc12 [Compound 51] |  |  |  | > 5 | > 5000 | > 5000
Fc1cnc2[nH]c3cnc(-c4cccnc4)cc3c2c1N1CCC(N2CCCCC2)CC1 [Example 83, 4-(1.4′-bipiperid-1′-yl)-3-fluoro-6-(pyrid-3-yl)-9H-pyrrolo[2,3-b:5,4-c′]-dipyridine] | > 5 | 100 to 1000 | 100 to 1000 |  |  | 
c1cncc(-c2cc3c(cn2)[nH]c2ncc(-c4ccc(OCCn5ccnc5)cc4)cc23)c1 [Example 150, 3-{4-[2-(1H-imidazol-1-yl)ethoxy]phenyl}-6-(pyrid-3-yl)-9H-pyrrolo[2,3-b:5,4-c′]-dipyridine] | 0.1 to 1 | 1 to 100 | 1 to 100 |  |  | 
Fc1cnc2[nH]c3cnc(-c4cccnc4)cc3c2c1-c1ccc2cc[nH]c2c1 [Example 55] | 1 to 5 | 100 to 1000 | 1 to 100 |  |  | 
CN(C(=O)c1c(F)cnc2[nH]c3cnc(-c4cccnc4)cc3c12)c1ccccc1 [Example 35, 3-fluoro-N-methyl-N-phenyl-6-(pyrid-3-yl)-9H-pyrrolo[2,3-b:5,4-c′]-dipyridine-4-carboxamide] | > 5 | 1000 to 5000 | 100 to 1000 |  |  | 
CN(C)C1CCN(c2c(F)cnc3[nH]c4cnc(-c5cccnc5)cc4c23)CC1 [Example 84, 1-[3-fluoro-6-(pyrid-3-yl)-9H-pyrrolo[2,3-b:5,4-c′]dipyrid-4-yl]-N,N-dimethylpiperid-4-amine] | 1 to 5 | 100 to 1000 | 100 to 1000 |  |  | 
COc1cncc(-c2cc3c(cn2)[nH]c2ncc(F)cc23)c1 [Example 159, 3-fluoro-6-(5-methoxypyrid-3-yl)-9H-pyrrolo[2,3-b:5,4-c′]dipyridine] | > 5 | 1000 to 5000 | 1000 to 5000 |  |  | 
Cc1cscc1-c1c(F)cnc2[nH]c3cnc(-c4cccnc4)cc3c12 [Example 57, 3-fluoro-4-(4-methyl-thiophen-3-yl)-6-(pyrid-3-yl)-9H-pyrrolo[2,3-b:5,4-c′]-dipyridine] | 1 to 5 | 100 to 1000 | 1000 to 5000 |  |  | 
c1cncc(-c2cc3c(cn2)[nH]c2ncc(-c4ccnc(N5CCNCC5)c4)cc23)c1 [Example 144, 3-[2-(piperazin-1-yl)pyrid-4-yl]-6-(pyrid-3-yl)-9H-pyrrolo[2,3-b:5,4-c′]dipyridine] | > 5 | 1 to 100 | 1 to 100 |  |  | 
CS(=O)(=O)c1cccc(-c2c(F)cnc3[nH]c4cnc(-c5cccnc5)cc4c23)c1 [Example 72, 3-fluoro-4-[3-(methylsulfonyl)phenyl]-6-(pyrid-3-yl)-9H-pyrrolo[2,3-b:5,4-c′]dipyridine] | > 5 | 1000 to 5000 | 100 to 1000 |  |  | 
Fc1cnc2[nH]c3cnc(-c4cccnc4)cc3c2c1-c1cccnc1 [Example 69, 3-fluoro-4,6-di(pyrid-3-yl)-9H-pyrrolo[2,3-b:5,4-c′]dipyridine] | > 5 | 100 to 1000 | 100 to 1000 |  |  | 
Cc1c(F)cnc2[nH]c3cnc(-c4cccnc4)cc3c12 [Example 38, 4-methyl-3-fluoro-6-(pyrid-3-yl)-9H-pyrrolo[2,3-b:5,4-c′]dipyridine] | > 5 | 100 to 1000 | 100 to 1000 |  |  | 
CCOC(=O)c1cnc2[nH]c3cnc(-c4cccnc4)cc3c2c1 [Example 4, ethyl 6-(pyrid-3-yl)-9H-pyrrolo [2,3-b:5,4-c′] dipyridine-3-carboxylate] | 1 to 5 | 100 to 1000 | 1 to 100 |  |  | 
Fc1cnc2[nH]c3cnc(-c4cccnc4)cc3c2c1N1CCN(CCCN2CCOCC2)CC1 [Example 87, 3-fluoro-4-{4-[3-(morpholin-4-yl)propyl]piperazin-1-yl}-6-(pyrid-3-yl)-9H-pyrrolo-[2,3-b:5,4-c′]-dipyridine] | 0.1 to 1 | 1 to 100 | 1 to 100 |  |  | 
CN(C)c1cccc(-c2c(F)cnc3[nH]c4cnc(-c5cccnc5)cc4c23)c1 [Example 58, 3-[3-fluoro-6-(pyrid-3-yl)-9H-pyrrolo[2,3-b:5,4-c′]dipyrid-4-yl]-N,N-dimethylaniline] | > 5 | 1000 to 5000 | 1000 to 5000 |  |  | 
CN1CCN(C2CCN(c3c(F)cnc4[nH]c5cnc(-c6cccnc6)cc5c34)CC2)CC1 [Example 82, 3-fluoro-4-[4-(4-methylpiperazin-1-yl)piperid-1-yl]-6-(pyrid-3-yl)-9H-pyrrolo-[2,3-b:5,4-c′]-dipyridine] | 1 to 5 | 100 to 1000 | 1 to 100 |  |  | 
c1cncc(-c2cc3c(cn2)[nH]c2ncc(-c4ccc(OCCCN5CCOCC5)cc4)cc23)c1 [Example 149, 3-{4-[3-(morpholin-4-yl)propoxy]phenyl}-6-(pyrid-3-yl)-9H-pyrrolo[2,3-b:5,4-c′]-dipyridine] | 0.1 to 1 | 1 to 100 | 1 to 100 |  |  | 
COc1cnc2[nH]c3cnc(-c4cnn(CCCCCN)c4)cc3c2c1 [Example 168, 5-[4-(3-methoxy-9H-pyrrolo[2,3-b:5,4-c′]dipyrid-6-yl)-1H-pyrazol-1-yl]pentan-1-amine] | > 5 | 100 to 1000 | 100 to 1000 |  |  | 
COc1ncc(-c2c(F)cnc3[nH]c4cnc(-c5cccnc5)cc4c23)cn1 [Example 73, 3-fluoro-4-(2-methoxypyrimidin-5-yl)-6-(pyrid-3-yl)-9H-pyrrolo[2;3-b:5,4-c′]dipyridine] | > 5 | 1000 to 5000 | 100 to 1000 |  |  | 
